Experimental data taken from publication PMC6843404, “Conferring the Metabolic Self-Sufficiency of the CAM Plasmid of Pseudomonas putida ATCC 17453: The Key Role of Putidaredoxin Reductase” (Microorganisms, 2019).

Tests used:
[1] = target: T1, Fred (Pseudomonas putida, UniProt M4YFG7); assay: spectrophotometric NADH oxidation at […] nm; type: biochemical; details: anaerobic
T1 construct: native, highly purified, chromosome-coded, 36 kDa homodimer
T1 sequence (M4YFG7 2-170): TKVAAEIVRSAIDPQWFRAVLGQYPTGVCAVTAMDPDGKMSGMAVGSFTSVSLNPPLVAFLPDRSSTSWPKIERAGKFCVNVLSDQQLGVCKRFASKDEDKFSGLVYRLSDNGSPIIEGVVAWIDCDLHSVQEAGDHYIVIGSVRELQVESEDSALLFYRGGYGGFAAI

[2] = target: T2, PdR (Pseudomonas putida, UniProt P16640); assay: spectrophotometric NADH oxidation at […] nm; type: biochemical; details: anaerobic
T2 construct: gene camA
T2 sequence (P16640 1-422): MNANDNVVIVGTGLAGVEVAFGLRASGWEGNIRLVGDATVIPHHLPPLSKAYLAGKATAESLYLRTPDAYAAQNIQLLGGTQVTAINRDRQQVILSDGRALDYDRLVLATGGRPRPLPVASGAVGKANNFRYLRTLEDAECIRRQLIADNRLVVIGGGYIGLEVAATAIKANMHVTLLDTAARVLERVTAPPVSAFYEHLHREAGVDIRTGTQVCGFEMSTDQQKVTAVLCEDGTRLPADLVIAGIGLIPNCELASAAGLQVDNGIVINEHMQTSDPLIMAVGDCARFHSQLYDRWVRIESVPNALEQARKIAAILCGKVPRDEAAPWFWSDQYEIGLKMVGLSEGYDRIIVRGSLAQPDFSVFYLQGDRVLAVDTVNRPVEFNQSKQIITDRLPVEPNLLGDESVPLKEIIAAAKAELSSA

Cc1cc2nc3c(=O)[nH]c(=O)nc-3n(C[C@H](O)[C@H](O)[C@H](O)COP(=O)(O)O)c2cc1C [FMN]
spectrophotometric NADH oxidation at 340 nm ([1]; NADH as co-substrate): measuring the initial rate of enzyme-catalysed reduction of FMN by NADH | spectrophotometric NADH oxidation at 340 nm ([2]; NADH as co-substrate): measuring the initial rate of enzyme-catalysed reduction of FMN by NADH

NC(=O)C1=CN([C@@H]2O[C@H](COP(=O)(O)OP(=O)(O)OC[C@H]3O[C@@H](n4cnc5c(N)ncnc54)[C@H](O)[C@@H]3O)[C@@H](O)[C@H]2O)C=CC1 [NADH]
spectrophotometric NADH oxidation at 340 nm ([1]; FMN as co-substrate): measuring the initial rate of enzyme-catalysed reduction of FMN by NADH | spectrophotometric NADH oxidation at 340 nm ([2]; FMN as co-substrate): measuring the initial rate of enzyme-catalysed reduction of FMN by NADH
